Laboratory results as given in patent publication US12383545B1, “Treatment of migraine” (priority 2018, dated 2025).

How the values were obtained:
[1] = test system: participants with episodic migraine; experiment: Study B: phase 3 randomized open-label 52-week long-term safety trial, eDiary efficacy (atogepant arm); assay type: in vivo, human; conditions: for Change from Baseline in Monthly Acute Medication Use Days, LS means - MMRM / Monthly Acute Medication Use Days, Observed Mean: Atogepant 60 mg QD, mITT Population
Protocol: Study B: A phase 3, multicenter, randomized, open label study was conducted to evaluate the long-term safety and tolerability of oral atogepant for the prevention of migraine in participants with episodic migraine (Study B). The study objective was to evaluate the safety and tolerability of daily treatment with atogepant 60 mg QD when administered over 52 weeks for the prevention of migraine in participants with episodic migraine.
FIG. 12 provides a schematic for the long-term safety study design. The study comprised a 4-week baseline/screening period, followed by a 52-week open-label treatment period, and a 4-week safety follow-up period.
A total of 744 participants from 106 sites were randomized in a ratio of 5:2 to the following treatment groups: atogepant 60 mg QD or oral standard of care (SOC) migraine prevention medication. The latter arm was included to contextualize safety data from the atogepant-treated participants, and efficacy measures were collected from the atogepant arm only. Efficacy measures were evaluated using the modified intent-to-treat (mITT) population and a mixed-effects model for repeated measures and included changes from baseline in monthly migraine days (MDDs), moderate/severe headache days, and acute medication use days, as well as the proportion of responders based on reductions in MMDs.
A total of 739 patients (n=546 atogepant) were included in the safety population.
All Screened Participants include those screened participants that signed informed consent forms. The Intent-to-Treat Population (ITT) includes all of the randomized participants. The safety population includes all participants who received at least one dose of study intervention (atogepant or SOC medication).
Efficacy endpoints for this study included change from baseline in monthly migraine days at each monthly period; change from baseline in monthly headache days at each monthly period; change from baseline in monthly acute medication use days at each monthly period; and ≥50% improvement (reduction) in monthly migraine days at each monthly period.

[2] = test system: participants with episodic migraine; experiment: Study B: MSQ v2.1 domain score over 52 weeks; assay type: in vivo, human; conditions: Role Function-Restrictive (RFR) domain, atogepant 60 mg, mITT Population
Excerpt: The Migraine-Specific Quality of Life Questionnaire Version 2.1 is one of the most frequently utilized disease-specific tools assessing the impact of migraine on HRQL. The MSQ is a validated tool that assess the impact of migraine on function (i.e., daily social and work-related activities) over the past 4 weeks across three dimensions: Role Function-Restrictive (RR, or “RFR”, relating to how migraines limit the patient's daily social and work related activities), Role Function-Preventive (RP, e.g., how migraines prevent the patient's daily social and work related activities), and Emotional Function (EF, e.g., the emotions associated with a patient's migraines). Patients respond to items using a 6-point scale: “none of the time,” “a little bit of the time,” “some of the time”, “a good bit of the time,” “most of the time” and “all of the time,” which are assigned scores of 1 to 6, respectively. Raw dimension scores are computed as a sum of item responses and rescaled from a 0 to 100 scale such that higher scores indicate better quality of life. See Bagley et al., Validating Migraine-Specific Quality of Life Questionnaire v2.1 in Episodic and Chronic Migraine, Headache, 2012 March; 52 (3): 409-21.
The Migraine-Specific Quality of Life Questionnaire version 2.1 (MSQv2.1) Role Function-Restrictive (RFR) domain least squares (LS) mean (standard error [SE]) at baseline was 48.1 (20.26) and LS mean changes from baseline throughout the trial are shown in FIG. 17 and in Table 32. Findings indicated rapid improvement over the first 12 weeks and sustained improvement from 12 to 52 weeks, and non-zero confidence intervals throughout indicate significant improvement at each timepoint assessed.

[3] = Study B, 60 mg QD, Weeks 1-4, mITT
[4] = Study B, 60 mg QD, Weeks 5-8, mITT
[5] = Study B, 60 mg QD, Weeks 9-12, mITT
[6] = Study B, 60 mg QD, Weeks 13-16, mITT
[7] = Study B, 60 mg QD, Weeks 17-20, mITT
[8] = Study B, 60 mg QD, Weeks 21-24, mITT
[9] = Study B, 60 mg QD, Weeks 25-28, mITT
[10] = Study B, 60 mg QD, Weeks 29-32, mITT
[11] = Study B, 60 mg QD, Weeks 33-36, mITT
[12] = Study B, 60 mg QD, Weeks 37-40, mITT
[13] = Study B, 60 mg QD, Weeks 41-44, mITT
[14] = Study B, 60 mg QD, Weeks 45-48, mITT
[15] = Study B, 60 mg QD, Weeks 49-52, mITT
[16] = Study B, 60 mg QD, weeks 49-52, participants who remained in the trial

## C[C@@H]1[C@H](c2c(F)ccc(F)c2F)C[C@H](NC(=O)c2cnc3c(c2)C[C@@]2(C3)C(=O)Nc3ncccc32)C(=O)N1CC(F)(F)F [atogepant]
[1]; [3]
  Monthly headache days, change from baseline, LS means (95% CI) - MMRM: -4.00 days
  Monthly headache days, observed mean (SD): 4.40 days
  Monthly migraine days, change from baseline, LS means (95% CI) - MMRM: -3.84 days
  Monthly migraine days, observed mean (SD): 3.47 days
  ≥50% improvement (reduction) in monthly migraine days, responder n/N1 (%): (60.4) %
[1]; [4]
  Monthly headache days, change from baseline, LS means (95% CI) - MMRM: -4.40 days
  Monthly headache days, observed mean (SD): 3.97 days
  Monthly migraine days, change from baseline, LS means (95% CI) - MMRM: -4.15 days
  Monthly migraine days, observed mean (SD): 3.13 days
  ≥50% improvement (reduction) in monthly migraine days, responder n/N1 (%): (65.1) %
[1]; [5]
  Monthly headache days, change from baseline, LS means (95% CI) - MMRM: -4.80 days
  Monthly headache days, observed mean (SD): 3.51 days
  Monthly migraine days, change from baseline, LS means (95% CI) - MMRM: -4.38 days
  Monthly migraine days, observed mean (SD): 2.85 days
  ≥50% improvement (reduction) in monthly migraine days, responder n/N1 (%): (70.2) %
[1]; [6]
  Monthly headache days, change from baseline, LS means (95% CI) - MMRM: -5.12 days
  Monthly headache days, observed mean (SD): 3.19 days
  Monthly migraine days, change from baseline, LS means (95% CI) - MMRM: -4.69 days
  Monthly migraine days, observed mean (SD): 2.52 days
  ≥50% improvement (reduction) in monthly migraine days, responder n/N1 (%): (74.1) %
[1]; [7]
  Monthly headache days, change from baseline, LS means (95% CI) - MMRM: -5.35 days
  Monthly headache days, observed mean (SD): 2.84 days
  Monthly migraine days, change from baseline, LS means (95% CI) - MMRM: -4.76 days
  Monthly migraine days, observed mean (SD): 2.33 days
  ≥50% improvement (reduction) in monthly migraine days, responder n/N1 (%): (73.5) %
[1]; [8]
  Monthly headache days, change from baseline, LS means (95% CI) - MMRM: -5.30 days
  Monthly headache days, observed mean (SD): 2.87 days
  Monthly migraine days, change from baseline, LS means (95% CI) - MMRM: -4.72 days
  Monthly migraine days, observed mean (SD): 2.37 days
  ≥50% improvement (reduction) in monthly migraine days, responder n/N1 (%): (75.3) %
[1]; [9]
  Monthly headache days, change from baseline, LS means (95% CI) - MMRM: -5.42 days
  Monthly migraine days, change from baseline, LS means (95% CI) - MMRM: -4.85 days
  Monthly migraine days, observed mean (SD): 2.20 days
  ≥50% improvement (reduction) in monthly migraine days, responder n/N1 (%): (75.1) %
[1]; [10]
  Monthly headache days, change from baseline, LS means (95% CI) - MMRM: -5.41 days
  Monthly headache days, observed mean (SD): 2.52 days
  Monthly migraine days, change from baseline, LS means (95% CI) - MMRM: -4.82 days
  Monthly migraine days, observed mean (SD): 2.12 days
  ≥50% improvement (reduction) in monthly migraine days, responder n/N1 (%): (76.7) %
[1]; [11]
  Monthly headache days, change from baseline, LS means (95% CI) - MMRM: -5.62 days
  Monthly headache days, observed mean (SD): 2.47 days
  Monthly migraine days, change from baseline, LS means (95% CI) - MMRM: -4.95 days
  Monthly migraine days, observed mean (SD): 2.06 days
  ≥50% improvement (reduction) in monthly migraine days, responder n/N1 (%): (80.5) %
[1]; [12]
  Monthly headache days, change from baseline, LS means (95% CI) - MMRM: -5.69 days
  Monthly headache days, observed mean (SD): 2.45 days
  Monthly migraine days, change from baseline, LS means (95% CI) - MMRM: -4.97 days
  Monthly migraine days, observed mean (SD): 2.08 days
  ≥50% improvement (reduction) in monthly migraine days, responder n/N1 (%): (78.1) %
[1]; [13]
  Monthly headache days, change from baseline, LS means (95% CI) - MMRM: -5.66 days
  Monthly headache days, observed mean (SD): 2.45 days
  Monthly migraine days, change from baseline, LS means (95% CI) - MMRM: -4.95 days
  Monthly migraine days, observed mean (SD): 2.09 days
  ≥50% improvement (reduction) in monthly migraine days, responder n/N1 (%): (78.5) %
[1]; [14]
  Monthly headache days, change from baseline, LS means (95% CI) - MMRM: -5.90 days
  Monthly headache days, observed mean (SD): 2.23 days
  Monthly migraine days, change from baseline, LS means (95% CI) - MMRM: -5.13 days
  Monthly migraine days, observed mean (SD): 1.91 days
  ≥50% improvement (reduction) in monthly migraine days, responder n/N1 (%): (82.4) %
[1]; [15]
  Monthly headache days, change from baseline, LS means (95% CI) - MMRM: -5.99 days
  Monthly headache days, observed mean (SD): 2.13 days
  Monthly migraine days, change from baseline, LS means (95% CI) - MMRM: -5.19 days
  Monthly migraine days, observed mean (SD): 1.84 days
  ≥50% improvement (reduction) in monthly migraine days, responder n/N1 (%): 84.2%
[1]; Study B, 60 mg QD, Weeks 49-52, mITT, listed as Atogepant
  ≥50% improvement (reduction) in monthly migraine days, responder n/N1 (%): (84.2) %
[1]; [16]
  participants with 100% reduction in MMDs: 48.4%
  participants with ≥75% reduction in MMDs: 69.9%
[1]; Study B, 60 mg, month 1, given as reduction
  reduction from baseline in monthly migraine days: approximately 4 days
[1]; Weeks 1-4
  Change from Baseline in Monthly Acute Medication Use Days, LS means - MMRM: -4.04 days
  Monthly Acute Medication Use Days, Observed Mean: 2.60 days
[1]; Weeks 5-8
  Change from Baseline in Monthly Acute Medication Use Days, LS means - MMRM: -4.11 days
  Monthly Acute Medication Use Days, Observed Mean: 2.49 days
[1]; Weeks 9-12
  Change from Baseline in Monthly Acute Medication Use Days, LS means - MMRM: -4.18 days
  Monthly Acute Medication Use Days, Observed Mean: 2.39 days
[1]; Weeks 13-16
  Change from Baseline in Monthly Acute Medication Use Days, LS means - MMRM: -4.46 days
  Monthly Acute Medication Use Days, Observed Mean: 2.09 days
[1]; Weeks 17-20
  Change from Baseline in Monthly Acute Medication Use Days, LS means - MMRM: -4.56 days
  Monthly Acute Medication Use Days, Observed Mean: 1.92 days
[1]; Weeks 21-24
  Change from Baseline in Monthly Acute Medication Use Days, LS means - MMRM: -4.49 days
  Monthly Acute Medication Use Days, Observed Mean: 2.01 days
[1]; Weeks 25-28
  Change from Baseline in Monthly Acute Medication Use Days, LS means - MMRM: -4.59 days
  Monthly Acute Medication Use Days, Observed Mean: 1.90 days
[1]; Weeks 29-32
  Change from Baseline in Monthly Acute Medication Use Days, LS means - MMRM: -4.54 days
  Monthly Acute Medication Use Days, Observed Mean: 1.84 days
[1]; Weeks 33-36
  Change from Baseline in Monthly Acute Medication Use Days, LS means - MMRM: -4.66 days
  Monthly Acute Medication Use Days, Observed Mean: 1.75 days
[1]; Weeks 37-40
  Change from Baseline in Monthly Acute Medication Use Days, LS means - MMRM: -4.68 days
  Monthly Acute Medication Use Days, Observed Mean: 1.75 days
[1]; Weeks 41-44
  Change from Baseline in Monthly Acute Medication Use Days, LS means - MMRM: -4.71 days
  Monthly Acute Medication Use Days, Observed Mean: 1.69 days
[1]; Weeks 45-48
  Change from Baseline in Monthly Acute Medication Use Days, LS means - MMRM: -4.90 days
  Monthly Acute Medication Use Days, Observed Mean: 1.51 days
[1]; Weeks 49-52
  Change from Baseline in Monthly Acute Medication Use Days, LS means - MMRM: -4.93 days
  Monthly Acute Medication Use Days, Observed Mean: 1.50 days
[2]; Week 12
  Change from Baseline in MSQ v2.1 Domain Score, LS Mean Δ from baseline: 30.02
[2]; Week 24
  Change from Baseline in MSQ v2.1 Domain Score, LS Mean Δ from baseline: 30.79
[2]; Week 36
  Change from Baseline in MSQ v2.1 Domain Score, LS Mean Δ from baseline: 32.34
[2]; Week 48
  Change from Baseline in MSQ v2.1 Domain Score, LS Mean Δ from baseline: 34.32
[2]; Week 52
  Change from Baseline in MSQ v2.1 Domain Score, LS Mean Δ from baseline: 34.70
